Measured values taken from a melting point compilation (Tetko et al.; mined from patent text by program, amines drawn as free bases though some values may be those of a salt).

| melting point | SMILES |
| --- | --- |
| 183 °C | Cc1oc2ccccc2c1C(=O)c1ccc(Cl)c(S(N)(=O)=O)c1 |
| 121 to 122 °C | CC(C)(C)c1ccc(/C=N/OCCCOc2ccc(C(=O)O)c(NC(=O)c3ccccc3C(F)(F)F)c2)cc1 |
| 232 °C | CCOC(c1ccc(C=NO)cc1)(c1ccc2[nH]c(=O)cc(-c3cccc(Cl)c3)c2c1)c1cncn1C (stereo not given) |
| 120 to 122 °C | N#CC(=Cc1ccc(CBr)cc1)S(=O)(=O)c1ccccc1 |
| 169 to 172 °C | Nc1ccc2c(c1)-c1ccccc1S2=O (stereo not given) |
| 122 °C | Cc1ccc(S(=O)(=O)Nc2cc(C3CCCC3)c([N+](=O)[O-])cc2Br)cc1 |
| 202 to 204 °C | CSc1ccc(-n2cnc3ccc(-c4nnc(C)o4)cc32)cc1 |
| 115 to 117 °C | CC(C)NCC(=O)N1c2ccccc2N(C)S(=O)(=O)c2ccccc21 |
| 139 to 140 °C | COCCN1CCN(CCc2ccc(Nc3ncc4c(n3)-c3ccccc3C(c3ccccc3C(F)(F)F)C4)cc2)CC1 (stereo not given) |
| 116 to 119 °C | COc1cc(C2=CCCCC2)c(Cl)cc1C(=O)N1Cc2ccc(C(=O)N(C)CCCN(C)C)n2Cc2ccccc21 |
| 157 to 158 °C | O=C1CCCc2c1c1ccccc1n2Cc1ccccc1 |
| 228 to 231 °C | Nc1ccc(Oc2ccc(S(=O)(=O)c3ccc(Oc4ccc(N)c(O)c4)cc3)cc2)cc1O |
| 66 to 69 °C | C=CCN1C(=O)C(C)(CN2CCN(c3ccccc3OC)CC2)N=C1c1cccnc1 (stereo not given) |
| 269 to 275 °C | Cc1cc2n(n1)C(c1cccc([N+](=O)[O-])c1)N=N2 (stereo not given) |
| 112 to 114 °C | Cn1nc(-c2c(F)cccc2Cl)nc1-c1cccc([N+](=O)[O-])c1Cl |
| 209 to 210 °C | Cc1ccn(-c2ccc(C)c(C(=O)N3Cc4cccnc4Nc4ccccc43)c2)n1 |
| 148 °C | Cc1cccc2nc3n(c12)CC(c1ccccn1)S3=O (stereo not given) |
| 118 °C | CCOC(=O)CSc1ccc([N+](=O)[O-])cc1C1C(C(=O)OC)=C(C)N(C)C(C)=C1C(=O)OC |
| 153 to 155 °C | CC(C)C(CS(=O)(=O)c1ccc(-c2cccc(CNC(=O)c3nc4ccccc4c(=O)[nH]3)c2)cc1)N(O)C=O (stereo not given) |
| 217 to 219 °C | O=c1ccn(-c2cccc(C(F)(F)F)c2)nc1-c1conc1-c1ccccc1 |

| melting point | SMILES |
| --- | --- |
| 155 to 156 °C | Fc1cccc(F)c1C1=NC(c2ccc(C#Cc3ccc(Cl)cc3)cc2)CO1 (stereo not given) |
| 147 to 148 °C | Cc1ccc(N(c2ccccc2)c2ccc3c4c(cccc24)CC3)cc1 |
| 174 °C | CCCCc1c(CO)nc2ccccc2c1OCc1ccc(-c2ccccc2C(=O)O)cc1 |
| 180 to 182 °C | Nc1ccc(CS(=O)(=O)Nc2ccccc2)cc1 |
| 112 to 115 °C | FC(F)(F)c1[nH]c(-c2ccc(Cl)cc2)cc1-c1csc(Br)c1 |
| 197 to 199 °C | O=C1Nc2cccc(-c3cccc([N+](=O)[O-])c3)c2/C1=C/c1ccc[nH]1 |
| 166 to 168 °C | CCOC(=O)C1=C(C)N=C(N)N(C(=O)OCC)C1c1cccc([N+](=O)[O-])c1 (stereo not given) |
| 155 to 157 °C | CCOC(=O)COc1ccccc1C(=O)Nc1ccccc1Sc1ccc(-c2nnn[nH]2)cc1 |
| 161 to 163 °C | CC(CCNC(=O)c1ccc(Oc2ccc(F)cc2)o1)N(O)C(N)=O (stereo not given) |
| 52 to 53.5 °C | Fc1ccc(C(F)(F)C(F)(F)c2ccccc2Br)cc1 |
| 65 to 68 °C | c1ccc(CSc2ccccc2Cn2cncn2)cc1 |
| 114 to 116 °C | COC(=O)c1c(Cl)cc(Cl)cc1NC(=O)CSc1ccc(N)cc1 |
| 92 to 93 °C | Cc1ccccc1C=Cc1ccccc1 |
| 72.3 to 75.1 °C | O=C(N[C@H](CCCO)c1nc(-c2ccccc2)c(-c2ccccc2)o1)OCc1ccccc1 |
| 265 °C | Cc1cc(=O)[nH]c(NC(=N)Nc2ccccc2)n1 |
| 153 to 155 °C | Brc1cnc(-c2ccc(OCc3ccccc3)cc2)nc1 |
| 107 to 108 °C | CCOC(=O)C1=C(C)NC(=O)N(C(=O)OCC)C1c1cccc([N+](=O)[O-])c1 (stereo not given) |
| 111 to 112 °C | O=C(O)CCCc1ccc(C(=O)C=Cc2ccccc2)cc1 |
| 266 to 268 °C | c1ccc(-c2nnc3ccc(N4CCOCC4)nn23)cc1 |
| 140 to 143 °C | CCN(CC)c1ccc(C2(N(c3ccccc3)c3ccccc3)OC(=O)c3nccnc32)cc1 (stereo not given) |

| melting point | SMILES |
| --- | --- |
| 221 to 222 °C | NC(=O)NN=Cc1ccc(Oc2ccc([N+](=O)[O-])cc2)cc1 |
| 190 to 191 °C | COC(=O)c1ccc(-c2nc3ccccc3o2)cc1 |
| 238 to 239 °C | N#CSc1cc(Cl)c(Cl)c2sc(NC(=O)Nc3ccc(Cl)cc3)nc12 |
| 263 to 265 °C | NC(=O)c1c(Cl)c(-c2ccccc2)n2c1CN(C(=O)Nc1cccc(C(=O)O)c1)CC2 |
| 200 to 203 °C | O=c1oc2c(c(O)c1C(c1cccc(S(=O)(=O)Nc3ccccc3)c1)C1CC1)CCCCCC2 (stereo not given) |
| 77 to 78 °C | Clc1ccc(-c2nc(COc3ccc(CCCn4ccnc4)cc3)co2)s1 |
| 150 °C | CN(C)CCC(=O)OC1c2ccccc2C(=O)N1c1ccc2ccc(Cl)nc2n1 (stereo not given) |
| 80 to 81 °C | CN(C)C(=O)CC1=C(n2nc(-c3c(-c4ccccc4)nn4ccccc34)ccc2=O)CCCC1 |
| 86 to 88 °C | CC(C)(C)OC(=O)c1cc(N=Nc2ccccc2CCC(=O)O)ccc1O |
| 158 to 162 °C | COc1ccc(S(=O)(=O)n2cc(F)c(N)nc2=O)cc1 |
| 70 to 73 °C | COc1ccc(ONc2ccccc2)cc1 |
| 153 to 154 °C | COc1ccc(C2N(C(C)=O)c3ccccc3-c3c([N+](=O)[O-])cnn32)cc1 (stereo not given) |
| 127 to 129 °C | COc1ccc2c(c1)CCC1C2CCC2(C)C(NC(c3ccccc3)c3ccccc3)CCC12 (stereo not given) |
| 180 to 181 °C | CCCCc1nc2cccc(CC#N)c2n1Cc1ccc(-c2ccccc2C#N)cc1 |
| 136 to 137 °C | CC(C)(C)c1ccc(CCC(=O)CCC2CCCCCC2)cc1NC(=O)CC1c2ccccc2Oc2ccccc21 |
| 155 to 156 °C | CCOC(=O)c1c(C)cc2c(c1C)c(=O)n(-c1ccccc1Cl)c(=O)n2CCCN(C)C |
| 155 to 157 °C | Cn1ncnc1COc1nn2c(-c3ccccc3Cl)nncc2c1-c1ccccc1F |
| 129 to 130 °C | COc1ccc(-c2cc(CN3CCN(C)CC3)c(=O)n(Cc3ccc(Cl)cc3)n2)cc1F |

More lines, now with the values behind:

| SMILES | melting point |
| --- | --- |
| CC(C)c1ccc(C(=O)C2CCc3ccccc3C2)c(C(C)C)c1OS(N)(=O)=O (stereo not given) | 137 to 139 °C |
| O=C(CS(=O)Cc1ccc(F)cc1)NO (stereo not given) | 176 to 177 °C |
| CCOC(=O)CNC(=O)c1ccc(O)cc1 | 205 to 209 °C |
| C#CCN(c1ccc(C(=O)NC(CCCCC(=O)O)C(=O)O)cc1)C1CCc2cc3nc(C)[nH]c(=O)c3cc21 (mixture of isomers) | 165 °C |
| CN(C)C(=O)CCCOC(=O)C(C)(OCc1ccc2ccccc2c1)C(F)(F)F (stereo not given) | 42 to 43 °C |
| CCCCC[C@H]1CC[C@H](CCc2ccc(O)cc2)CC1 | 102 °C |
| CCOC(=O)C=Cc1ccc(C#N)cc1 | 71 °C |
| FC(F)(F)c1ccc2nccc(Br)c2c1 | 56 °C |
| Cc1oncc1C(=O)N1CCOCC1 | 42 to 44 °C |
| CCc1oc(C)cc(=O)c1O | 157 to 159 °C |
| NCC(=O)NC(Cc1ccccn1)c1ccccc1 (stereo not given) | 75 to 77 °C |
| CC(C)NC1=NS(=O)(=O)c2cc(C(F)(F)F)ccc2N1 | 287 to 289 °C |
| O=S1(=O)CCN(c2nc3c(-c4nc(C5CC5)no4)ncn3c3ccccc23)CC1 | 328 to 335 °C |
| COC(=O)CC1OCCN(CCc2c[nH]c3ccc(C)cc23)C1=O (stereo not given) | 138 °C |
| C#CCN(C(=O)c1ccco1)c1c(C)cccc1C | 113 °C |
| OCCSc1ccc(O)cc1 | 70 °C |
| Cc1cc(F)ccc1NC(=O)c1cc([N+](=O)[O-])ccc1NC(=O)CF | 237 to 239 °C |
| O=C(O)C1=Cc2cc(Cl)cc(-c3cccs3)c2OC1C(F)(F)F (stereo not given) | 258 to 259 °C |
| N#CNC(=N)NC1CC1 | 106 °C |
| CCCCCC(=O)NS(=O)(=O)CCc1cc(OCCCC)nn1Cc1ccc(Cl)cc1Cl | 90 to 92 °C |
| COc1ccc(N2CCN(CCCCc3ccc(C4CCC(=O)N4)cc3)CC2)cc1 (stereo not given) | 155 to 156 °C |

| SMILES | melting point |
| --- | --- |
| CCCCCCCCCCCC(=O)NCCCCCC(=O)O | 85 to 86 °C |
| CN(C(=O)OC(C)(C)C)c1sc(-c2cccnc2)nc1Br | 88 to 91 °C |
| Cc1cc2[nH]c(C)nc(N3CCOCC3)c-2n1 | 242 to 243 °C |
| CCCCCCCCCCCCCC(=O)N[C@H](C(=O)O)C(C)C | 88 to 89 °C |
| O=C(O)c1cn(C2CC2)c2nc(-c3cc4c(s3)CCC/C4=N\O)c(F)cc2c1=O | > 300 °C |
| NC(=O)c1cc(NCc2c(F)c(F)c(C(F)(F)F)c(F)c2F)ccc1O | 143 to 145 °C |
| COC(=O)c1cc(C#N)ccc1Cl | 100 to 103 °C |
| CSCCOc1ccccc1NN | 72.5 to 74.5 °C |
| CN1CC(C(=O)COC(=O)c2cccnc2)CC2c3cccc4[nH]cc(c34)CC21 (stereo not given) | 172 to 174 °C |
| CC(=O)Nc1ccc(CC(=S)N2CCOCC2)cc1 | 210 to 212 °C |
| CNC(=C[N+](=O)[O-])NCCSCc1csc(CN2CCCCC2)n1 | 100 to 103 °C |
| CCC1(CC)C(=O)N(C(C)(C)CO)CC(C)(C)N1OC(C)(C)C#N | 58 to 66 °C |
| CCCc1c(OCCCO)ccc(C(C)=O)c1O | 57 to 59 °C |
| Fc1ccc2[nH]c(CN3C[C@@H]4C[C@H]3CN4c3ccccn3)cc2c1 | 211 to 214 °C |
| COC1=C(OC)C(=O)C(CCCCCCCCCCCO)=C(C)C1=O | 57 °C |
| Brc1cncc2nc(SCc3ccccc3)nn12 | 94 to 95 °C |
| CC(=O)OC(C=C(C)C=CC=C(C)C=O)OC(C)=O | 99.5 °C |
| CC(=O)OC1OCC[C@@H]1NC(=O)[C@@H](NC(=O)OCc1ccccc1)C(C)C (stereo not given in full) | 173 to 174 °C |
| CC(O)C(Cc1cc(C(C)(C)C)c(O)c(C(C)(C)C)c1)C(C)O (stereo not given) | 102 to 105 °C |
| COC(=O)c1nccnc1NS(=O)(=O)c1cccc(Cl)c1Cl | 177 to 178 °C |
| CCOC(=O)COc1c(OC)cc(Cl)c2c1CN1CCc3cc(OC)c(OCc4ccccc4)cc3C1C2 (stereo not given) | 134 °C |
